PubChem BioAssay AID2060496 (Molecular Pharmacology Branch, DTP, NCI, 2025)

Tested on: 276233-004-R-J1-PDC complex spheroid viability
Assay: Anticancer human tumor 276233-004-R-J1-PDC patient-derived colon adenocarcinoma cell line growth inhibition [GQUAD]
Settings: for IC50: curve of first compound; for viability, T/C: stronger effect = lower value
Method in brief: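 Tumor cells were grown as complex spheroids with HUVEC endothelial cells and mesenchymal stem cells as stroma. G-quadruplex stabilizers were combined with targeted agents over half-log dilutions from near the clinical Cmax, or from 10 microM.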

[1] = second compound 0.0316 µM, first compound 0.0316 µM
[2] = second compound 0.0316 µM, first compound 0.1 µM
[3] = second compound 0.0316 µM, first compound 0.316 µM
[4] = second compound 0.0316 µM, first compound 1 µM
[5] = second compound 0.0316 µM, first compound 3.16 µM
[6] = second compound 0.0316 µM, first compound 10 µM
[7] = second compound 0.1 µM, first compound 0.0316 µM
[8] = second compound 0.1 µM, first compound 0.1 µM
[9] = second compound 0.1 µM, first compound 0.316 µM
[10] = second compound 0.1 µM, first compound 1 µM
[11] = second compound 0.1 µM, first compound 3.16 µM
[12] = second compound 0.1 µM, first compound 10 µM
[13] = second compound 0.316 µM, first compound 0.0316 µM
[14] = second compound 0.316 µM, first compound 0.1 µM
[15] = second compound 0.316 µM, first compound 0.316 µM
[16] = second compound 0.316 µM, first compound 1 µM
[17] = second compound 0.316 µM, first compound 3.16 µM
[18] = second compound 0.316 µM, first compound 10 µM
[19] = second compound 1 µM, first compound 0.0316 µM
[20] = second compound 1 µM, first compound 0.1 µM
[21] = second compound 1 µM, first compound 0.316 µM
[22] = second compound 1 µM, first compound 1 µM
[23] = second compound 1 µM, first compound 3.16 µM
[24] = second compound 1 µM, first compound 10 µM
[25] = second compound 3.16 µM, first compound 0.0316 µM
[26] = second compound 3.16 µM, first compound 0.1 µM
[27] = second compound 3.16 µM, first compound 0.316 µM
[28] = second compound 3.16 µM, first compound 1 µM
[29] = second compound 3.16 µM, first compound 3.16 µM
[30] = second compound 3.16 µM, first compound 10 µM
[31] = second compound 10 µM, first compound 0.0316 µM
[32] = second compound 10 µM, first compound 0.1 µM
[33] = second compound 10 µM, first compound 0.316 µM
[34] = second compound 10 µM, first compound 1 µM
[35] = second compound 10 µM, first compound 3.16 µM
[36] = second compound 10 µM, first compound 10 µM
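Further: spheroids exposed to drugs for seven days.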
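Wherever viability, T/C is given: 100% = DMSO vehicle control viability.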

CC1COCCN1c1cc(C2(S(C)(=N)=O)CC2)nc(-c2ccnc3[nH]ccc23)n1 (stereo not drawn) + Cc1[nH]c2ccc(F)cc2c1-c1nc2c3cccnc3c3ncccc3c2[nH]1
IC50 (second compound 0.0316 µM): > 10 µM
IC50 (second compound 0.1 µM): > 10 µM
IC50 (second compound 0.316 µM): > 10 µM
IC50 (second compound 1 µM): > 10 µM
IC50 (second compound 3.16 µM): 7.86 µM
IC50 (second compound 10 µM): 0.424 µM
viability, T/C [1]: 96.4%
viability, T/C [2]: 83%
viability, T/C [3]: 110%
viability, T/C [4]: 89.6%
viability, T/C [5]: 87.1%
viability, T/C [6]: 67.3%
viability, T/C [7]: 76.6%
viability, T/C [8]: 101%
viability, T/C [9]: 85.8%
viability, T/C [10]: 90.1%
viability, T/C [11]: 75%
viability, T/C [12]: 74.1%
viability, T/C [13]: 97.3%
viability, T/C [14]: 79.8%
viability, T/C [15]: 97.7%
viability, T/C [16]: 70.1%
viability, T/C [17]: 74.6%
viability, T/C [18]: 63.6%
viability, T/C [19]: 80.3%
viability, T/C [20]: 79%
viability, T/C [21]: 85.4%
viability, T/C [22]: 76.1%
viability, T/C [23]: 64.3%
viability, T/C [24]: 57.4%
viability, T/C [25]: 56.2%
viability, T/C [26]: 58.6%
viability, T/C [27]: 55.9%
viability, T/C [28]: 50.1%
viability, T/C [29]: 53.6%
viability, T/C [30]: 48.7%
viability, T/C [31]: 47.9%
viability, T/C [32]: 49.5%
viability, T/C [33]: 47.5%
viability, T/C [34]: 58.2%
viability, T/C [35]: 44%
viability, T/C [36]: 36.3%

Cc1cccc(N(C)C(=O)C2C(O)CCN2c2nc(C)cc(C(F)(F)F)c2C#N)c1 (stereo not drawn) + Cc1[nH]c2ccc(F)cc2c1-c1nc2c3cccnc3c3ncccc3c2[nH]1
IC50 (second compound 0.0316 µM): > 10 µM
IC50 (second compound 0.1 µM): > 10 µM
IC50 (second compound 0.316 µM): > 10 µM
IC50 (second compound 1 µM): > 10 µM
IC50 (second compound 3.16 µM): > 10 µM
IC50 (second compound 10 µM): > 10 µM
viability, T/C [1]: 110%
viability, T/C [2]: 83.8%
viability, T/C [3]: 87.2%
viability, T/C [4]: 87.4%
viability, T/C [5]: 117%
viability, T/C [6]: 114%
viability, T/C [7]: 88.2%
viability, T/C [8]: 95.6%
viability, T/C [9]: 86.4%
viability, T/C [10]: 95.3%
viability, T/C [11]: 96.6%
viability, T/C [12]: 97.8%
viability, T/C [13]: 74.6%
viability, T/C [14]: 78%
viability, T/C [15]: 103%
viability, T/C [16]: 97.8%
viability, T/C [17]: 96%
viability, T/C [18]: 96.8%
viability, T/C [19]: 77.4%
viability, T/C [20]: 85.2%
viability, T/C [21]: 71.6%
viability, T/C [22]: 79.2%
viability, T/C [23]: 90.5%
viability, T/C [24]: 85.2%
viability, T/C [25]: 60.5%
viability, T/C [26]: 56.8%
viability, T/C [27]: 61.6%
viability, T/C [28]: 59.6%
viability, T/C [29]: 59.8%
viability, T/C [30]: 62.6%
viability, T/C [31]: 53.7%
viability, T/C [32]: 58.4%
viability, T/C [33]: 58.6%
viability, T/C [34]: 52.1%
viability, T/C [35]: 58%
viability, T/C [36]: 64.7%

CCCS(=O)(=O)Nc1ccc(F)c(C(=O)c2c[nH]c3ncc(-c4ccc(Cl)cc4)cc23)c1F + Cc1cnc(CNC(=O)c2c(=O)c3ccc(N4CCCN(C)CC4)nc3n3c2sc2ccccc23)cn1
IC50 (second compound 0.0316 µM): > 10 µM
IC50 (second compound 0.1 µM): > 10 µM
IC50 (second compound 0.316 µM): > 10 µM
IC50 (second compound 1 µM): > 10 µM
IC50 (second compound 3.16 µM): > 10 µM
IC50 (second compound 10 µM): > 10 µM
viability, T/C [1]: 82.2%
viability, T/C [2]: 93.7%
viability, T/C [3]: 117%
viability, T/C [4]: 105%
viability, T/C [5]: 112%
viability, T/C [6]: 75.7%
viability, T/C [7]: 92%
viability, T/C [8]: 87.3%
viability, T/C [9]: 96.4%
viability, T/C [10]: 105%
viability, T/C [11]: 99.5%
viability, T/C [12]: 82.9%
viability, T/C [13]: 80.8%
viability, T/C [14]: 99.1%
viability, T/C [15]: 101%
viability, T/C [16]: 100%
viability, T/C [17]: 101%
viability, T/C [18]: 79.9%
viability, T/C [19]: 89.3%
viability, T/C [20]: 81.8%
viability, T/C [21]: 97.7%
viability, T/C [22]: 79.2%
viability, T/C [23]: 95%
viability, T/C [24]: 74.3%
viability, T/C [25]: 94.2%
viability, T/C [26]: 76.4%
viability, T/C [27]: 81.9%
viability, T/C [28]: 80.2%
viability, T/C [29]: 71.4%
viability, T/C [30]: 62.2%
viability, T/C [31]: 67.4%
viability, T/C [32]: 70%
viability, T/C [33]: 64.3%
viability, T/C [34]: 69.7%
viability, T/C [35]: 77.1%
viability, T/C [36]: 50.5%

CC(=O)O[C@H]1C(=O)[C@@]2(C)[C@H]([C@H](OC(=O)c3ccccc3)[C@]3(O)C[C@H](OC(=O)[C@H](O)[C@@H](NC(=O)c4ccccc4)c4ccccc4)C(C)=C1C3(C)C)[C@]1(OC(C)=O)CO[C@@H]1C[C@@H]2O + Cc1cnc(CNC(=O)c2c(=O)c3ccc(N4CCCN(C)CC4)nc3n3c2sc2ccccc23)cn1
IC50 (second compound 0.0316 µM): > 10 µM
IC50 (second compound 0.1 µM): > 10 µM
IC50 (second compound 0.316 µM): > 10 µM
IC50 (second compound 1 µM): > 10 µM
IC50 (second compound 3.16 µM): > 10 µM
IC50 (second compound 10 µM): > 10 µM
viability, T/C [1]: 72.5%
viability, T/C [2]: 80.5%
viability, T/C [3]: 90.3%
viability, T/C [4]: 81.1%
viability, T/C [5]: 84.1%
viability, T/C [6]: 95.8%
viability, T/C [7]: 80.1%
viability, T/C [8]: 93.4%
viability, T/C [9]: 80.8%
viability, T/C [10]: 93.6%
viability, T/C [11]: 86.6%
viability, T/C [12]: 84.5%
viability, T/C [13]: 97.5%
viability, T/C [14]: 94%
viability, T/C [15]: 89.9%
viability, T/C [16]: 91%
viability, T/C [17]: 87.7%
viability, T/C [18]: 95.6%
viability, T/C [19]: 76%
viability, T/C [20]: 84.8%
viability, T/C [21]: 88.6%
viability, T/C [22]: 89.5%
viability, T/C [23]: 87%
viability, T/C [24]: 75.8%
viability, T/C [25]: 91.5%
viability, T/C [26]: 72.9%
viability, T/C [27]: 80.8%
viability, T/C [28]: 71.1%
viability, T/C [29]: 80.3%
viability, T/C [30]: 83.8%
viability, T/C [31]: 59.9%
viability, T/C [32]: 62.5%
viability, T/C [33]: 64.9%
viability, T/C [34]: 53.8%
viability, T/C [35]: 51.4%
viability, T/C [36]: 61.4%
